From US6191152A, “2-(1,2,4-triazole-1-yl)-1,3,4-thiadiazole derivatives having an effect on the C.N.S. and the heart” (EGIS Gyogyszergyar Rt., priority 1997, dated 2001)
Counter-ions that a name gives are not always drawn.

Assays:
[1] = system: isolated Langendorff rat hearts; test: Cardioprotective effect (time to contracture, TTC) in globally ischemic isolated Langendorff rat hearts; parameters: species or system rat (male Wistar); settings: for TTC change vs vehicle (%) at 10 µM / TTC change vs vehicle (%) at 1 µM: Rattus norvegicus, compared to the vehicle treated group; for TTC change vs vehicle (%) at 10 µM: 10^-5 M; for TTC change vs vehicle (%) at 1 µM: 10^-6 M
Source text: 3. Measurement of Cardioprotective Effect in Ischemic rat Heart (Langendorff) Preparation
If the blood supply to a part of the myocardium is interrupted (e.g. during myocardial infarction), then the intracellular calcium concentration starts to rise and gradually attains pathophysiological levels. Myocardial contraction is regulated by calcium, therefore, high intracellular calcium concentration results in contracture of the myocardium. In isolated rat hearts, contracture develops in about 10 minutes after starting global ischemia, and this period is called time to contracture (TTC). Any substance which can inhibit the rise of intracellular calcium concentration and the development of contracture caused by high calcium concentration during ischemia protects the myocardium from impairment i.e. it has cardioprotective effect. Under experimental conditions,the cardioprotective effect of drugs is shown by their ability to prolong TTC. The cardioprotective effect of the compounds of the invention was examined by measuring TTC in globally ischemic Langendorff rat hearts/Longman, S. D. and Hamilton, T. C., Medicinal Research Reviews, 12, 73-148 (1992)/.
Male Wistar rats weighing 300 to 350 g were injected with 2500 IU (0.5 ml) of heparin i.p. and 10 minutes later they were anaesthetized with sodium pentobarbital/5-ethyl-5-(1-methylbutyl)-2,4,6(1H,3H,5H)-pyrimidinetrione sodium salt/in a dose of 60 mg/kg i.p. The heart was quickly excised and connected to a Langendorff apparatus via the aorta. The hearts were perfused at a constant perfusion pressure (60 mmHg) and temperature (37° C.) with a modified Krebs-Henseleit solution gassed with 95% of O2 and 5% of CO2. The composition of the modified Krebs-Henseleit solution was the following (in mM): NaCl 118, KCl 4.7, CaCl2 2.5, NaHCO3 24.88, KH2 PO4 1.18, MgSO4 1.6, EDTA 0.5 and glucose 11. Partial O2 and CO2 pressures and also pH were measured and maintained within normal limits (pO2 ==64000-77000 Pa, pCO2 =3800-4500 Pa, pH=7.3-7.45). A hole was cut in the wall of the left atrium and a water-filled plastic balloon attached to a metal cannula was then inserted into the left ventricle via the left atrium for measuring left ventricular pressure. End diastolic pressure was set to about 645 Pa, and adjusted for during the equilibration period but not later.
After a 20 minutes equilibration period, the hearts were perfused for 10 minutes with the test substance at 10^-5 or 10^-6 concentration or with the vehicle (0.04% of dimethyl sulfoxide). Global ischemia was initiated by completely shutting off the perfusate flow and carbogenization for 25 minutes. During ischemia, the time period from the beginning of ischemia until 645 Pa increase in left ventricular end diastolic pressure was measured (TTC).
Three experiments were performed with the test substances at each concentration and parameters of 3 additional vehicle treated hearts were measured along with the test substance.
Individual TTC values were averaged and the effect of the test substances was expressed as a percentage change compared to the vehicle treated group. Compounds that prolong TTC are cardioprotective. As a reference substance, lemakalim i.e. (3S)-trans-3,4-dihydro-3-hydroxy-2,2-dimethyl-4-(2-oxo-1-pyrrolidinyl)-2H- 1-benzpyrane-6-carbonitrile was used.

[2] = system: isolated guinea-pig papillary muscle; test: Effective refractory period (ERP) prolonging effect in isolated guinea-pig right ventricular papillary muscle, in vitro; parameters: species or system guinea-pig (male); settings: for ERP change at 10^-4 M / ERP change at 10^-5 M: 30 minutes incubation, mean of at least four preparations
Source text: 2. Measurement of Effective Refracter Period in Guinea-pig Right Ventricular Papillary Muscle, in Vitro.
Effective refracter period (ERP) is regarded to be the shortest time interval between two identical electrical stimuli when both can evoke a twitch in the papillary muscle. A second stimulus applied earlier than the ERP is not effective. Compounds prolonging ERP can have antiarrhythmic effect. This method is useful primarily for testing antiarrhythmic agents belonging to class III according to the Vaughan Williams classification /Bexton, R. S. and Camm. A., J. Pharmacol. Ther., 17, 315 (1982)/.
Experiments were performed in a Schuler-type organ bath system having 4 channels. Male guinea-pigs weighing 450 to 750 g were killed by a blow on the head and ensanguinated. The heart was rapidly excised and papillary muscles of appropriate size (lower than 1 mm in diameter) were dissected from the right ventricle. The preparations were vertically mounted in 20 ml organ chambers containing Krebs solution bubbled with carbogen (consisting of 95% of O2 and 5% of CO2) and maintained at 35° C. The upper end of the muscles was connected with cotton threads to force-displacement transducers coupled to a recorder for measuring isometric tension via DC-bridge amplifiers. The lower end of the papillary muscles was pinned to the organ chamber with a silver hook that was also used as a stimulating electrode. The other electrode was immersed into the organ bath and had no direct contact with the preparation. The composition of the Krebs solution was the following (in mm): NaCl 118, KCl 4.8, NaHCO3 27.2, glucose 11.1, MgSO4 1.2, KH2 PO4 1, CaCl2 2.6, pH=7.4.
The preparations were equilibrated for 120 minutes under a resting tension of 1 g. During equilibration they were electrically stimulated at a rate of 2 Hz with 1 msec rectangular pulses that were above the diastolic threshold voltage by 10%. ERP was determined using a standard extrastimulus technique. Extrastimuli (S2) were interjected between the normal stimuli (S1) in such a way that the S1 -S2 interval was initially below the refracter period of the tissue. The S1 -S2 interval was then widened by increments of 1 msec until the extrastimulus (S2) evoked twitch of the papillary muscle. The force of the twitch caused by S2 is larger than those caused by normal (S1) stimuli (postextrasystolic potentiation). The equipment measured the shortest S1 -S2 interval at which the extrastimulus evoked a twitch that was larger than the force of control twitches by 25%. This interval is equivalent with the ERP.
The experimental protocol was as follows:
Two control ERP measurements were performed 20 minutes apart, then appropriate amount of the test substance was added to produce 10^-4 M concentration in the bathing solution. After 30 minutes incubation with the test substance, two ERP measurements were performed 30 minutes apart.
When the test substance increased ERP at 10^-4 M by 40 msec or more, its effect on ERP was tested also at 10^-5 M.
The effect of the test substances was characterized by the difference between the first treated and the second control measurements. Individual data obtained from four different preparations, at least, were averaged. The reference substance used was sotalol i.e. N-[4-/1-hydroxy-2-(1-methylethylamino)ethyl/plenyl]methane sulfonamide.

[3] = system: isolated rat thoracic aorta; test: Vascular relaxing effect in potassium chloride (20 mM KCl) contracted isolated rat thoracic aorta; parameters: species or system rat (male SPRD); settings: for IC50: Rattus norvegicus, 20 mM KCl contracted strips, 37° C., read-out: IC50 (vascular relaxation in isolated rat thoracic aorta)
Method: 1. Measurement of Vascular Relaxing Effect in Potassium Chloride Contracted Isolated rat Thoracic Aorta
Experiments were performed in thoracic aortas obtained from male SPRD rats weighing 250 to 300 g. Thoracic aortas excised from rats killed by decapitation and ensanguination were cleaned of fat and connective tissue, then were immediately placed in carbogenized TYRODE solution. The composition of the normal TYRODE solution was the following (in mM): NaCl 114.7, KCl 3.7, CaCl2 3.6, MgCl2 0.49, NaHCO3 19.9, NaH2 PO4 0.32, glucose 5.1.
Two mm wide and 20 to 25 mm long strips were cut from the aortas along a helical line at 45° angle. Aortic strips were mounted vertically between two cotton threads in 10 ml organ chambers, the lower threads were attached to the organ chambers and the upper threads were connected to isometric force transducers. The strips were incubated under 1 g resting tension at 37° C. for 120 minutes, then resting vascular tone was recorded. Then the strips were contracted with a TYRODE solution containing 20 mM KCl. The composition of the high potassium TYRODE solution was the following (in mM): NaCl 94.7, KCl 20, CaCl2 3.6, MgCl2 0.49, NaHCO3 19.9, NaH2 PO4 0.32, glucose 5.1.
When stable vascular tone developed, increasing doses of the test substance were added to the organ bath. The effects of each test substance were measured at least in 3 tissue preparations obtained from different animals. Decreases in vascular tension caused by the test substances were expressed as percentage changes and IC50 for each tissue preparation was determined by sigmoid (in few casses linear) curve fitting.
For comparison, cromakalim i.e. (±)-trans-3,4-dihydro-3-hydroxy-2,2-dimethyl-4-(2-oxo-1-pyrrolidinyl)-2H-1-benzopyrane-6-carbonitrile was used.

For CN1CCN(c2nc(N)n(-c3nnc(-c4c(Cl)cccc4Cl)s3)n2)CC1 [Example 10, 2-/5-Amino-3-(4-methylpiperazino)-1H-1,2,4-triazole-1-yl/ -5-(2,6-dichlorophenyl)-1,3,4-thiadiazole hydrochloride monohydrate], the TTC change vs vehicle (%) at 10 µM [1] was 74%, the TTC change vs vehicle (%) at 1 µM [1] was 47% and the “ERP change at 10^-4 M” value [2] was 120 msec. The “ERP change at 10^-5 M” value [2] was 32 msec and the IC50 [3] was greater than 10 µM.
With CSc1nc(N)n(-c2nnc(-c3cccc(OCCCN(C)C)c3)s2)n1 [Example 26, 2-(5-Amino-3-methylthio-1H-1,2,4-triazole-1-yl)-5-/ 3-(3-dimethylaminopropoxy)phenyl/-1,3,4-thiadiazole hydrochloride] the “TTC prolongation (in words)” value [1] was “prolonged not only TTC but ERP as well”, the TTC change vs vehicle (%) at 10 µM [1] was 41% and the TTC change vs vehicle (%) at 1 µM [1] was 33%. For the same molecule, the “ERP prolongation (in words)” value [2] was “prolonged not only TTC but ERP as well”, the “ERP change at 10^-4 M” value [2] was 148 msec and the “ERP change at 10^-5 M” value [2] was 21 msec. It also gave an IC50 [3] greater than 10 µM.
For CSc1nc(N)n(-c2nnc(-c3ccccc3OCCCN(C(C)C)C(C)C)s2)n1 [Example 45, 2-(5-Amino-3-methylthio-1H-1,2,4-triazole-1-yl)-5-[2-/ 3-di(2-methylethyl)aminopropoxy/phenyl]-1,3,4-thiadiazole], the TTC change vs vehicle (%) at 10 µM [1] was 31%, the TTC change vs vehicle (%) at 1 µM [1] was 30% and the IC50 [3] was greater than 1 µM.
Molecule CCN(CCO)CCOc1ccccc1-c1nnc(-n2nc(N3CCCCC3)nc2N)s1 [Example 90, 2-(5-Amino-3-piperidino-1H-1,2,4-triazole-1-yl)-5-{2-[2-/ 2-ethyl-2-(2-hydroxyethyl)amino/ethoxy]phenyl}-1,3,4-thiadiazole] has a TTC change vs vehicle (%) at 10 µM [1] of 36%, a TTC change vs vehicle (%) at 1 µM [1] of 19% and an IC50 [3] greater than 10 µM.
For Nc1nc(N2CCCCC2)nn1-c1nnc(-c2ccccc2OCCNCCN2CCOCC2)s1 [Example 91, 2-(5-Amino-3-piperidino-1H-1,2,4-triazole-1-yl)-5-[2-/ 2-(2-morpholinoethyl)amino/ethoxy]phenyl-1,3,4-thiadiazole], the TTC change vs vehicle (%) at 1 µM [1] was 58% and the IC50 [3] was greater than 1 µM.
COc1ccc(CCN(C)CCCOc2cccc(-c3nnc(-n4nc(SC)nc4N)s3)c2)cc1OC [Example 105, 2-(5-Amino-3-methylthio-1H-1,2,4-triazole-1-yl)-5-{3-[3-methyl-3-/ 2-(3,4-dimethoxyphenylethyl)amino/propoxy]phenyl}-1,3,4-thiadiazole] was tested, and the “ERP change at 10^-4 M” value [2] was 62 msec, the “ERP change at 10^-5 M” value [2] was 14 msec and the IC50 [3] was greater than 1 µM.
With COc1ccc(CCN(C)CCCOc2ccc(-c3nnc(-n4nc(SC)nc4N)s3)cc2)cc1OC [Example 108, 2-(5-Amino-3-methylthio-1H-1,2,4-triazole-1-yl)-5-{4-[3-methyl-3-/ 2-(3,4-dimethoxyphenylethyl)amino/propoxy]phenyl}-1,3,4-thiadiazole] the “ERP change at 10^-4 M” value [2] was 66 msec, the “ERP change at 10^-5 M” value [2] was 29 msec and the IC50 [3] was greater than 10 µM.
With CC1(C)Oc2ccc(C#N)cc2[C@@H](N2CCCC2=O)[C@@H]1O [lemakalim, (3S)-trans-3,4-dihydro-3-hydroxy-2,2-dimethyl-4-(2-oxo-1-pyrrolidinyl)-2H-1-benzpyrane-6-carbonitrile, reference compound] the “TTC prolongation (in words)” value [1] was “prolonged not only TTC”, the TTC change vs vehicle (%) at 10 µM [1] was 55% and the TTC change vs vehicle (%) at 1 µM [1] was 20%. For the same molecule, the “vascular relaxation of isolated rat thoracic aorta (in words)” value [3] was “considerably relaxed isolated rat thoracic aorta”.
